# Laboratory results published in PubChem BioAssay (NCI).
#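 Exposure lasted 48 hours, with cells grown in 96-well plates and compounds tested at five concentrations. GI50 is the concentration that inhibits growth by half. TGI: concentration producing complete growth inhibition.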
# Columns and labels:
# Experiment in all cases: DTP human tumour cell line panel, 48 h
# BT-549 breast = test system: BT-549 breast
# T-47D breast = test system: T-47D breast
# 786-0 renal = test system: 786-0 renal
# SNB-75 CNS = test system: SNB-75 CNS
# KM12 colon = test system: KM12 colon
# HOP-92 NSCLC = test system: HOP-92 NSCLC
# SNB-19 CNS = test system: SNB-19 CNS
# OVCAR-8 ovarian = test system: OVCAR-8 ovarian
# HCC-2998 colon = test system: HCC-2998 colon
# NCI-H522 lung = test system: NCI-H522 lung
# ACHN renal = test system: ACHN renal
# SR leukemia = test system: SR leukemia
# SF-268 CNS = test system: SF-268 CNS
# DU-145 prostate = test system: DU-145 prostate
# SK-OV-3 ovarian = test system: SK-OV-3 ovarian
# MCF7 breast = test system: MCF7 breast
# OVCAR-3 ovarian = test system: OVCAR-3 ovarian
# HCT-116 colon = test system: HCT-116 colon
# HS 578T breast = test system: HS 578T breast
# SK-MEL-28 melanoma = test system: SK-MEL-28 melanoma
# TK-10 renal = test system: TK-10 renal
# OVCAR-4 ovarian = test system: OVCAR-4 ovarian
# EKVX NSCLC = test system: EKVX NSCLC
# PC-3 prostate = test system: PC-3 prostate
# MDA-MB-231 breast = test system: MDA-MB-231 breast
# HCT-15 colon = test system: HCT-15 colon
# UACC-257 melanoma = test system: UACC-257 melanoma
# U251 CNS = test system: U251 CNS
# IGROV1 ovarian = test system: IGROV1 ovarian
# M14 melanoma = test system: M14 melanoma
# MALME-3M melanoma = test system: MALME-3M melanoma
# COLO 205 colon = test system: COLO 205 colon
# SN12C renal = test system: SN12C renal
# NCI-H460 lung = test system: NCI-H460 lung
# NCI-H226 lung = test system: NCI-H226 lung
# CAKI-1 renal = test system: CAKI-1 renal
# LOX IMVI melanoma = test system: LOX IMVI melanoma
# MDA-MB-435 = test system: MDA-MB-435
# MDA-MB-468 breast = test system: MDA-MB-468 breast
# HT29 colon = test system: HT29 colon
# UACC-62 melanoma = test system: UACC-62 melanoma
# A549 NSCLC = test system: A549 NSCLC
# K-562 leukemia = test system: K-562 leukemia
# SF-295 CNS = test system: SF-295 CNS
# OVCAR-5 ovarian = test system: OVCAR-5 ovarian
# HOP-62 NSCLC = test system: HOP-62 NSCLC
# UO-31 renal = test system: UO-31 renal
# SF-539 CNS = test system: SF-539 CNS
# MOLT-4 leukemia = test system: MOLT-4 leukemia
# HL-60(TB) leukemia = test system: HL-60(TB) leukemia
# SW-620 colon = test system: SW-620 colon
# A498 renal = test system: A498 renal
# SK-MEL-5 melanoma = test system: SK-MEL-5 melanoma
# CCRF-CEM leukemia = test system: CCRF-CEM leukemia
# RPMI-8226 leukemia = test system: RPMI-8226 leukemia
# RXF 393 renal = test system: RXF 393 renal
# NCI-H23 lung = test system: NCI-H23 lung
smiles,measurement,setting,value
CCN(CC)c1ccnc(CNCCSC(c2ccccc2)(c2ccccc2)c2ccc(OC)cc2)c1,GI50,BT-549 breast,2.62 µM
same,TGI,BT-549 breast,6.87 µM
same,GI50,T-47D breast,2.94 µM
same,TGI,T-47D breast,12 µM
same,GI50,786-0 renal,1.75 µM
same,TGI,786-0 renal,4.15 µM
same,GI50,SNB-75 CNS,1.65 µM
same,TGI,SNB-75 CNS,9.09 µM
same,GI50,KM12 colon,3.41 µM
same,TGI,KM12 colon,12.4 µM
same,GI50,HOP-92 NSCLC,2.36 µM
same,TGI,HOP-92 NSCLC,9.84 µM
same,GI50,SNB-19 CNS,4.3 µM
same,TGI,SNB-19 CNS,15.6 µM
same,GI50,OVCAR-8 ovarian,2.71 µM
same,TGI,OVCAR-8 ovarian,11.2 µM
same,GI50,HCC-2998 colon,1.79 µM
same,TGI,HCC-2998 colon,3.41 µM
same,GI50,NCI-H522 lung,2.44 µM
same,TGI,NCI-H522 lung,7.29 µM
same,GI50,ACHN renal,4.52 µM
same,TGI,ACHN renal,17.2 µM
same,GI50,SR leukemia,2.11 µM
same,TGI,SR leukemia,12.4 µM
same,GI50,SF-268 CNS,4.35 µM
same,TGI,SF-268 CNS,19 µM
same,GI50,DU-145 prostate,3.78 µM
same,TGI,DU-145 prostate,13.6 µM
same,GI50,SK-OV-3 ovarian,3.22 µM
same,TGI,SK-OV-3 ovarian,13.2 µM
same,GI50,MCF7 breast,1.3 µM
same,TGI,MCF7 breast,5.96 µM
same,GI50,OVCAR-3 ovarian,3.18 µM
same,TGI,OVCAR-3 ovarian,11 µM
same,GI50,HCT-116 colon,2 µM
same,TGI,HCT-116 colon,8.32 µM
same,GI50,HS 578T breast,2.26 µM
same,TGI,HS 578T breast,6.8 µM
same,GI50,SK-MEL-28 melanoma,4.2 µM
same,TGI,SK-MEL-28 melanoma,15 µM
same,GI50,TK-10 renal,5.9 µM
same,TGI,TK-10 renal,19.2 µM
same,GI50,OVCAR-4 ovarian,4.32 µM
same,TGI,OVCAR-4 ovarian,20.6 µM
same,GI50,EKVX NSCLC,3.61 µM
same,TGI,EKVX NSCLC,14.9 µM
same,GI50,PC-3 prostate,3.19 µM
same,TGI,PC-3 prostate,13.3 µM
same,GI50,MDA-MB-231 breast,2.32 µM
same,TGI,MDA-MB-231 breast,5.78 µM
same,GI50,HCT-15 colon,2.87 µM
same,TGI,HCT-15 colon,10.8 µM
same,GI50,UACC-257 melanoma,4.04 µM
same,TGI,UACC-257 melanoma,15.9 µM
same,GI50,U251 CNS,2.92 µM
same,TGI,U251 CNS,10.7 µM
same,GI50,IGROV1 ovarian,3.82 µM
same,TGI,IGROV1 ovarian,15.7 µM
same,GI50,M14 melanoma,1.85 µM
same,TGI,M14 melanoma,4.86 µM
same,GI50,MALME-3M melanoma,2.82 µM
same,TGI,MALME-3M melanoma,9.49 µM
same,GI50,COLO 205 colon,1.72 µM
same,TGI,COLO 205 colon,3.52 µM
same,GI50,SN12C renal,3.43 µM
same,TGI,SN12C renal,13.6 µM
same,GI50,NCI-H460 lung,3.12 µM
same,TGI,NCI-H460 lung,10.3 µM
same,GI50,NCI-H226 lung,3.1 µM
same,TGI,NCI-H226 lung,13.6 µM
same,GI50,CAKI-1 renal,3.63 µM
same,TGI,CAKI-1 renal,16 µM
same,GI50,LOX IMVI melanoma,1.9 µM
same,TGI,LOX IMVI melanoma,3.86 µM
same,GI50,MDA-MB-435,1.44 µM
same,TGI,MDA-MB-435,5.12 µM
same,GI50,MDA-MB-468 breast,1.66 µM
same,TGI,MDA-MB-468 breast,4.49 µM
same,GI50,HT29 colon,1.98 µM
same,TGI,HT29 colon,4.45 µM
same,GI50,UACC-62 melanoma,4.43 µM
same,TGI,UACC-62 melanoma,17 µM
same,GI50,A549 NSCLC,3.74 µM
same,TGI,A549 NSCLC,17.1 µM
same,GI50,K-562 leukemia,2.68 µM
same,TGI,K-562 leukemia,8.97 µM
same,GI50,SF-295 CNS,2.2 µM
same,TGI,SF-295 CNS,5.86 µM
same,GI50,OVCAR-5 ovarian,2.93 µM
same,TGI,OVCAR-5 ovarian,10.6 µM
same,GI50,HOP-62 NSCLC,3.09 µM
same,TGI,HOP-62 NSCLC,12.3 µM
same,GI50,UO-31 renal,3.86 µM
same,TGI,UO-31 renal,17 µM
same,GI50,SF-539 CNS,2.15 µM
same,TGI,SF-539 CNS,4.27 µM
same,GI50,MOLT-4 leukemia,2.19 µM
same,TGI,MOLT-4 leukemia,7.13 µM
same,GI50,HL-60(TB) leukemia,1.65 µM
same,TGI,HL-60(TB) leukemia,4.24 µM
same,GI50,SW-620 colon,3.14 µM
same,TGI,SW-620 colon,13.2 µM
same,GI50,A498 renal,13.9 µM
same,TGI,A498 renal,29.7 µM
same,GI50,SK-MEL-5 melanoma,1.68 µM
same,TGI,SK-MEL-5 melanoma,3.06 µM
same,GI50,CCRF-CEM leukemia,3.13 µM
same,TGI,CCRF-CEM leukemia,10.8 µM
same,GI50,RPMI-8226 leukemia,2.3 µM
same,TGI,RPMI-8226 leukemia,6.43 µM
same,GI50,RXF 393 renal,2.4 µM
same,TGI,RXF 393 renal,7.2 µM
same,GI50,NCI-H23 lung,3.04 µM
same,TGI,NCI-H23 lung,10.2 µM
